In patent US10006080B2, “High-selectivity contact activation inhibitor based on infestin-4” (OBSCHESTVO S OGRANICHENNOY OTVETSTVENNOSTYU …, priority 2013, dated 2018):

B1: corn trypsin inhibitor (other, UniProt P01088 29-138, looked up)
chain: SAGTSCVPGWAIPHNPLPSCRWYVTSRTCGIGPRLPWPELKRRCCRELADIPAYCRCTALSILMDGAIPPGPDAQLEGRLEDLPGCPREVQRGFAATLVTEAECNLATIS
notes: Isolated from corn; also called CTI

What was measured:
contact activation = assay: Thrombodynamics analyzer T-2, artifact clots far from the TF activator in normal frozen-thawed PFP; type: biochemical, human; conditions: MutB 20 μM, CTI 15 μM; for cuvette area occupied by artifact clots far from the activator: 30 minutes after activation, whole cuvette area without inhibitor; for suppression of contact activation, formation of artifact clots: 30 minutes after assay start, n=4
Protocol: The assay included the following steps: thawing of a frozen PFP sample, adding to it of a contact activation inhibitor and incubating the resulting mixture, sample recalcification and its placing into the measuring cuvette channel, bringing the sample into contact with the TF immobilized at the end of a special insert-activator, and detecting the appearance and growth of fibrin clots in the consequent photography mode. The frozen PFP sample was obtained preliminarily through collection of blood into sodium citrate-containing tubes from several (at least five) healthy donors and subsequent 2 stages of centrifugation and freezing of the prepared plasma at −80° C. During the assay arrangement, the fibrin clot was growing from the insert-activator; appearance of additional clots in the cuvette area far from the activator was also possible, as shown on FIG. 2. Clots in the cuvette area far from the activator can be due to the hypercoagulation state of the sample or to the artifacts of sample contact activation from the cuvette walls (artifact clots): the latter must be suppressed for the said test to allow distinguishing between the normal and hypercoagulation states of the coagulation system. To do that, before activating the sample through bringing it into contact with TF, an efficient quantity of the contact activation inhibitor was added into the sample: in this case, we used the polypeptide comprising the sequence of an infestin-4 mutant MutB. To compare the efficiency of the claimed polypeptide comprising the sequence of an infestin-4 mutant MutB with the contact activation inhibitor CTI known in the field, the said inhibitors were added into 2 separate samples of normal frozen PFP plasma. We used such concentrations of the inhibitors at which the APTT increases nearly four-fold: 20 μM in case of MutB and 15 μM in case of CTI. […] For each sample, 4 repeated measurements were performed. 30 minutes after the assay start, images of the fibrin clot in measuring cuvettes-4 cuvettes for each sample-were obtained: they are shown on FIG. 3.
The cuvette area occupied by artifact clots (in % from the total cuvette area; n=4) was plotted for 3 samples of normal frozen plasma at separate time points (FIG. 4, averaged values at each time point). Without adding the contact activation inhibitor, artifact clots appear in the cuvette area far from the activator nearly 15 minutes after activation and occupy the whole cuvette area after 30 minutes. However, after addition of CTI or MutB, such clots occupy not more than 15% of the cuvette area 30 minutes after activation. […]

[1] = system: TF-initiated fibrin clot growth; assay: Thrombodynamics analyzer T-2, fibrin clot growth from immobilized TF in normal and hypocoagulant PFP (0.1 IU/ml heparin); type: biochemical, human; conditions: MutB 20 μM, CTI 15 μM; n=4
Protocol: The influence of contact activation inhibitors on coagulation dynamics can be shown on the example of fibrin clot growth from the surface with immobilized TF. The dynamics of fibrin clot growth from the activator can be characterized by the following parameters: delay of clot formation after the contact of plasma with the tissue factor—lag time (Tlag, min); average clot growth velocity within 2-6 minutes after the start of coagulation—initial velocity (Vin, μm/min); and average clot growth velocity within 15-25 minutes after the start of coagulation—stationary velocity (Vst, μm/min) (Balandina et al. 2011, Biophys. J. 101:1816-1824; Dashkevich et at 2012, Biophys. J. 103:2233-2240). The mentioned parameters allow determining the state of blood coagulation of the subjects from whom the test samples were obtained («Practical coagulology», M A Panteleev, S A Vasilyev, E I Sinauridze and co-authors, ed. by A I Vorobyov. Moscow, publishing house «Practical medicine», 2011, 192 pages., ISBN: 978-5-98811-165-8). […]

Molecule	cuvette area occupied by artifact clots far from the activator (contact activation)	suppression of contact activation, formation of artifact clots (contact activation)	influence on the difference of fibrin clot growth dynamics between hypocoagulant and normal plasma [1]
MutB: polypeptide comprising the sequence of infestin-4 mutant MutB (SEQ ID NO: 1), inhibition loop TRNFVA; high-selectivity fXIIa inhibitor (EVRNPCACTRNFVAVCGSDGKTYGNPCMLNCAAQTKVPGLKLVHEGRCQRSNVEQF; Infestin-4 mutant MutB)	not more than 15%	almost complete suppression	does not have any influence
B1	not more than 15%	almost complete suppression	does not have any influence
